# Data published in ChEMBL document CHEMBL5126505, “Adenosine receptor antagonists: Recent advances and therapeutic perspective” (Eur J Med Chem, 2022).
# How the values were obtained:
# [1] = biological target: T1, Adenosine receptor A3 (Homo sapiens, UniProt P0DMS8); test: biochemical
# T1 sequence (P0DMS8 whole entry): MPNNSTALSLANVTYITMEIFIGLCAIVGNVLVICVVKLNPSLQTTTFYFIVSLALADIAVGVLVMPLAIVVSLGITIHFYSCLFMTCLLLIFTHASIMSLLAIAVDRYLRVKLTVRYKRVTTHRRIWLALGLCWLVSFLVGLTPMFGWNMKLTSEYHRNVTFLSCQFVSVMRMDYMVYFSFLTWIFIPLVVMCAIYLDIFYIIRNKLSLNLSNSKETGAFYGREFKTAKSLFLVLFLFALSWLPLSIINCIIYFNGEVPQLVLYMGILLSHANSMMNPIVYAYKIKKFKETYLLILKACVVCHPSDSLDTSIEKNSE
# Description: Displacement of [3H]NECA from human adenosine A3 receptor expressed in HeLa cells measured by scintillation counting assay
# [2] = biological target: T1, Adenosine receptor A3
# Description: Antagonist activity at human adenosine A3 receptor expressed in CHO cells assessed as cAMP level measured by enzyme immunoassay
# [3] = biological target: T2, Adenosine receptor A2a (Homo sapiens, UniProt P29274)
# Description: Binding affinity to human adenosine A2A receptor
# [4] = biological target: T3, Amine oxidase [flavin-containing] B (Homo sapiens, UniProt P27338)
# T3 sequence (P27338 whole entry): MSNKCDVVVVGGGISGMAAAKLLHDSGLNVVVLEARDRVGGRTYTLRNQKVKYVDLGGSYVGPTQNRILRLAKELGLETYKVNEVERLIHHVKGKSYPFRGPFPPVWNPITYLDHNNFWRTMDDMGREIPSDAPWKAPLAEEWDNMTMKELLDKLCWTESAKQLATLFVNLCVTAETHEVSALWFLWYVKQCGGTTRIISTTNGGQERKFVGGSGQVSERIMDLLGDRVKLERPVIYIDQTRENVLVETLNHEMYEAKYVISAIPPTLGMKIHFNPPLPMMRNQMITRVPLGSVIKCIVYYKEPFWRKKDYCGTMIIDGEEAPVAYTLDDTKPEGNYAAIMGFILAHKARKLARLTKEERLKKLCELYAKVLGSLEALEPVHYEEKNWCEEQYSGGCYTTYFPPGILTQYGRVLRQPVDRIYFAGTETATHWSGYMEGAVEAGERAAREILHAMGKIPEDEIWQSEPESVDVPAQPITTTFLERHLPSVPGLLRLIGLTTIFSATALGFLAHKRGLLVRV
# Description: Inhibition of MAO-B (unknown origin)
# [5] = biological target: T4, Adenosine receptor A1 (Homo sapiens, UniProt P30542)
# T4 sequence (P30542 whole entry): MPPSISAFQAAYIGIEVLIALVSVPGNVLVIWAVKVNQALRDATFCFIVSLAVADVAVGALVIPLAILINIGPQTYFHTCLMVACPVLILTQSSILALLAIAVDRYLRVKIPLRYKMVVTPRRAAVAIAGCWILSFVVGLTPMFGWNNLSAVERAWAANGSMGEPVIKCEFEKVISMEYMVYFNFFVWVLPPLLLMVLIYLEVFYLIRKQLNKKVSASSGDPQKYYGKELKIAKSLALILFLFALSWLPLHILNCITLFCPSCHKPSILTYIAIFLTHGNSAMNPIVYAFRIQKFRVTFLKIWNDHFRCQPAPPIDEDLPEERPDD
# Description: Antagonist activity at human adenosine A1A receptor
# [6] = in vivo; conditions: male, Wistar, rat
# Description: Half-life in male Wistar rat
# [7] = biological target: T5, Adenosine receptor A2b (Homo sapiens, UniProt P29275)
# T5 sequence (P29275 whole entry): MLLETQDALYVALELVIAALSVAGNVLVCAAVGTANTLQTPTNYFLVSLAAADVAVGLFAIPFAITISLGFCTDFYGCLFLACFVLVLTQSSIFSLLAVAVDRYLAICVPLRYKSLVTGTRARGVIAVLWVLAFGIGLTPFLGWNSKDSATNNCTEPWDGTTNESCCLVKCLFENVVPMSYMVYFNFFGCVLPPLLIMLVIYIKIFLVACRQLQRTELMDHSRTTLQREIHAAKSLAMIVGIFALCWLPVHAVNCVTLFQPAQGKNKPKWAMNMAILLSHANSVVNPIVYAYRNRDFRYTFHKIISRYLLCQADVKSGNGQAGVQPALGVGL
# Description: Antagonist activity at human adenosine A2B receptor expressed in mouse NIH/3T3 cells assessed as inhibition of NECA-induced IL-6 release
# [8] = biological target: T5, Adenosine receptor A2b; remark: listed apart in the source
# Description: Binding affinity to human adenosine A2B receptor
# [9] = biological target: T5, Adenosine receptor A2b; test: Antagonist activity at human adenosine A2B receptor expressed in HEK293 cells assessed as inhibition of cAMP production; format: functional, cell-based
# [10] = in vitro; conditions: human, liver microsomes
# [11] = in vitro; conditions: human, Caco-2
# Description: Apparent permeability in human Caco-2 cells
# [12] = biological target: T4, Adenosine receptor A1; test: Displacement of [3H]CCPA from human adenosine […] receptor expressed in CHO cells measured by radioligand competition assay; format: cell-based
# [13] = biological target: T2, Adenosine receptor A2a; test: Displacement of [3H]NECA from human adenosine A2A receptor expressed in CHO cells measured by radioligand competition assay; format: cell-based
# [14] = species: Rattus norvegicus; test: animal or person; conditions: po
# Description: Antiparkinson's activity in L-DOPA induced dyskinesia rat model assessed as reduction in contralateral rotations administered orally
# [15] = biological target: T2, Adenosine receptor A2a; test: biochemical
# Description: Displacement of [3H]ZM-241385 from human adenosine A2A receptor expressed in HEK293 cells incubated for 60 mins and measured by scintillation counting assay
# [16] = in vivo; conditions: male, Wistar, rat, iv, 3 mg/kg
# Description: Half-life in male Wistar rat at 3 mg/kg, iv
# [17] = species: Rattus norvegicus; test: animal or person; conditions: po, 4 h
# Description: Reversal of haloperidol-induced catalepsy in rat administered orally and measured after 4 hrs
# T2 sequence (P29274 whole entry): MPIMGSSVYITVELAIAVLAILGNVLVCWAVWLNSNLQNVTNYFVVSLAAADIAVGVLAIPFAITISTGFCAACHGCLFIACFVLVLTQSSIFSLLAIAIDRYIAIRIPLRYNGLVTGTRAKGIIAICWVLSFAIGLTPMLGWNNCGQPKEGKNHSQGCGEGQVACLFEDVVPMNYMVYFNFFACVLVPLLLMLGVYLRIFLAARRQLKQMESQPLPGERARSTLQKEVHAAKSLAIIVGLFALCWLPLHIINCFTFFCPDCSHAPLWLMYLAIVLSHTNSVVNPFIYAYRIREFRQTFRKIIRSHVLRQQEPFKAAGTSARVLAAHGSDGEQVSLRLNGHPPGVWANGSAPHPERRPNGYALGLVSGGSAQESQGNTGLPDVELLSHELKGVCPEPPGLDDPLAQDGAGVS
compound,measurement,setting,value
CCn1nnc([C@H]2O[C@@H](n3cnc4c(N)nc(NC(C)Cc5ccc(OC)cc5)nc43)[C@H](O)[C@@H]2O)n1 (some centres not stated),Ki,[1],13 nM
same,Ki,[2],6 nM
Cn1c(=O)c2c(nc(/C=C/c3cccc(Br)c3)n2C)n(C)c1=O,Ki,[3],28.4 nM
same,IC50,[4],112 nM
CCCn1c(Oc2ccc(F)c(F)c2)nc2nc(C3CCCC3)[nH]c2c1=O,Ki,[5],2 nM
same,half-life,[6],2 h
CCCn1c(=O)c2[nH]c(-c3cnn(CC#Cc4cccc(OC(F)(F)F)c4)c3)nc2n(CCC)c1=O,IC50,[7],107 nM
same,Ki,[8],13 nM
same,Ki,[9],8 nM
Nc1cc(-c2ccco2)c2oc(-c3ccco3)nc2c1,half-life at 0.1 µM,[10],> 0.683 h
same,Papp,[11],77 ×10⁻⁶ cm/s
O=c1oc2c(O)cccc2cc1-c1ccc(Br)cc1,Ki,[12],2400 nM
same,Ki,[13],12100 nM
COCCOc1ccc(N2CCN(CCn3c(=O)n(C)c4c3nc(N)n3nc(-c5nccs5)nc43)CC2)c(F)c1,ED50,[14],1.2 mg/kg
same,Ki,[15],0.4 nM
same,half-life,[16],1 h
same,ED50,[17],4.49 mg/kg
